Converted amounts (≈) assume the structure as drawn. Like-named read-outs stand apart in the source and are kept apart here.
Tests used:
[1] = tested on: Staphylococcus aureus (SAUR); experiment: Minimum inhibitory concentration (MIC), broth two-fold serial dilution test; settings: Table IIIa; for MIC (G+) SAUR: M9G (minimal salts media with glucose); for MIC: Staphylococcus aureus, read-out: MIC (G+) SAUR, M9G (minimal salts media with glucose)
Description: When the test is ready to be done, each vessel in the dilution series, except the first vessel, contains an equal volume of compound free broth. The first vessel contains twice the volume of broth with the starting concentration of test compound. One half of the broth from the first vessel is transferred to the second vessel. After being mixed, one half the resulting volume is removed from the second vessel and transferred to the third vessel. The entire cycle is repeated sufficiently to give a series of concentrations amounting to 500, 250, 125, 63, 31, 16, 8, and 4 ppm (or 100, 50, 25, 12.5, 6.2, 3.1, 1.6, and 0.8), respectively.
Each vessel is then inoculated with a cell suspension of the appropriate test organism. Bacteria are grown in broth, fungi on agar slants for a time and at a temperature appropriate to the species being tested, and algae are a mixture of green algae and blue-green bacteria grown in a nutrient media. At the end of the growth period, in the case of bacteria, the broth is vortexed to disperse the cells.
The vessels are then incubated at the appropriate temperature. After the incubation, the vessels are examined for growth/no growth.

[2] = tested on: Pseudomonas aerugenosa (PSAE); experiment: as above; settings: Table IIIa
Piricularia oryzae (PIR) = experiment: microbe, parasite or virus in culture; assay type: cell-based; settings: for inhibition of growth at 25 ppm: read-out: % Control at 25 ppm PIR
[3] = tested on: Xanthomonas campestris (XAN); experiment: In-vitro plant fungicide test; assay type: cell-based; settings: 25 ppm, Table IVa; for inhibition of growth at 25 ppm: Xanthomonas campestris, read-out: % Control at 25 ppm XAN
[4] = tested on: Pseudomonas fluorescens (PSFL); experiment: Minimum inhibitory concentration (MIC), broth two-fold serial dilution test; settings: Table IIIa
[5] = tested on: Aureobasidium pullulans (APUL); experiment: as above; assay type: cell-based; settings: M9G (minimal salts media with glucose); for MIC: Aureobasidium pullulans, read-out: MIC (F) APUL
Aspergillus niger (ANIG) = experiment: as above; assay type: cell-based; settings: M9G (minimal salts media with glucose); for MIC: Aspergillus niger, read-out: MIC (F) ANIG
THREE FUNGI = experiment: MIC test against three fungi in Mycophile Broth, pH 5.0, read after 8 days (Table VII); assay type: cell-based; settings: serial dilutions from 50 ppm, read after 8 days of incubation; for MIC: 192 h
Escherichia coli (ECOL) = experiment: Minimum inhibitory concentration (MIC), broth two-fold serial dilution test; settings: for MIC (G-) ECOL: M9G (minimal salts media with glucose); for MIC: Escherichia coli, read-out: MIC (G-) ECOL, M9G (minimal salts media with glucose)
Septoria nodorum (SEP) = experiment: In-vitro plant fungicide test; assay type: cell-based; settings: 25 ppm, Table IVa; for inhibition of growth at 25 ppm: Parastagonospora nodorum, read-out: % Control at 25 ppm SEP
[6] = tested on: Phytophthora capsici (PHY); experiment: In-vitro plant fungicide test; assay type: cell-based; settings: Phytophthora capsici; 25 ppm; Table IVa; read-out: % Control at 25 ppm PHY
Pythium ultimum (PYU) = experiment: In-vitro plant fungicide test; assay type: cell-based; settings: Globisporangium ultimum; 25 ppm; Table IVa; read-out: % Control at 25 ppm PYU
Rhizoctonia solani (RHI) = experiment: In-vitro plant fungicide test; assay type: cell-based; settings: Rhizoctonia solani; 25 ppm; Table IVa; read-out: % Control at 25 ppm RHI
Fusarium roseum (FUS) = experiment: In-vitro plant fungicide test; assay type: cell-based; settings: Table IVa, *=Phytotoxic; for inhibition of growth at 25 ppm: Fusarium sambucinum, read-out: % Control at 25 ppm FUS, 25 ppm
Botrytis cinerea (BOC) = experiment: In-vitro plant fungicide test; assay type: cell-based; settings: Botrytis cinerea, 25 ppm; Table IVa; *=Phytotoxic; read-out: % Control at 25 ppm BOC
[7] = tested on: Cochliobolus sativus (HEL); experiment: In-vitro plant fungicide test; assay type: cell-based; settings: Bipolaris sorokiniana, 25 ppm; Table IVa; *=Phytotoxic; read-out: % Control at 25 ppm HEL
[8] = M9G (minimal salts media with glucose)
[9] = Table IIIc, iodopropargyl esters of peptides
[10] = Aspergillus niger, read-out: MIC ANIG
[11] = Aureobasidium pullulans, read-out: MIC APUL
[12] = Gloeophyllum trabeum, read-out: MIC GTRA

SMILES	MIC (G+) SAUR [1] [PPM]	MIC [5, 9] [µg/mL]	MIC (THREE FUNGI; [10]) [µg/mL]	MIC (THREE FUNGI; [11]) [µg/mL]	MIC (THREE FUNGI; [12]) [µg/mL]	MIC (Escherichia coli (ECOL); [9]) [µg/mL]	MIC [1] [µg/mL]	inhibition of growth at 25 ppm (Piricularia oryzae (PIR)) [%]	inhibition of growth at 25 ppm [3] [%]	inhibition of growth at 25 ppm (Pythium ultimum (PYU)) [%]	MIC ([5]; Table IIIa) [µg/mL]	MIC (Aspergillus niger (ANIG); Table IIIa) [µg/mL]	inhibition of growth at 25 ppm (Rhizoctonia solani (RHI)) [%]	inhibition of growth at 25 ppm (Fusarium roseum (FUS)) [%]	inhibition of growth at 25 ppm (Septoria nodorum (SEP)) [%]	further results
C[C@H](N)C(=O)OCC#CI [Compound 22, L-alanine iodopropargyl ester]	100	–	–	–	–	–	–	–	–	–	–	–	–	–	–	MIC (G-) PSAE [2, 8]: 100 PPM; % Control at 25 ppm PIR (Piricularia oryzae (PIR); 25 ppm): 100%; % Control at 25 ppm XAN [3]: 0%; MIC (G-) PSFL [4, 8]: 100 PPM; MIC (F) APUL ([5]; Table IIIa): <0.8 PPM; MIC (F) ANIG (Aspergillus niger (ANIG); Table IIIa): <0.8 PPM; MIC ANIG (THREE FUNGI; Aspergillus niger): 12.5 ppm; MIC APUL (THREE FUNGI; Aureobasidium pullulans): 50 ppm; MIC (G-) ECOL (Escherichia coli (ECOL); Table IIIa): 100 PPM; % Control at 25 ppm SEP (Septoria nodorum (SEP)): 100%
C[C@H](NC(=O)[C@@H](C)NC(=O)OC(C)(C)C)C(=O)OCC#CI [Compound 26, N-t-butoxycarbonyl-D-alanyl-L-alanine iodopropargyl ester]	–	< 4	25 (≈ 58.9 µM)	50 (≈ 118 µM)	6.2 (≈ 14.6 µM)	63	–	–	–	–	–	–	–	–	–	MIC (F) APUL [5, 9]: 8 PPM; MIC (F) ANIG (Aspergillus niger (ANIG); [9]): <4 PPM; MIC (G-) ECOL (Escherichia coli (ECOL); [9]): 32 PPM
CC(C)(C)OC(=O)N[C@@H](CSCc1ccccc1)C(=O)OCC#CI [Compound 4, N-t-butoxycarbonyl-S-benzyl-L-cysteine iodopropargyl ester]	–	–	50 (≈ 105 µM)	50 (≈ 105 µM)	6.2 (≈ 13 µM)	–	25	100	0	100	3	3	100	95	100	MIC ([2]; Pseudomonas, read-out: MIC (G-) PSAE, M9G (minimal salts media with glucose)): > 100 µg/mL; inhibition of growth at 25 ppm [6]: 100%; MIC ([4]; Pseudomonas fluorescens, read-out: MIC (G-) PSFL, M9G (minimal salts media with glucose)): > 10 µg/mL; MIC (Escherichia coli (ECOL); Table IIIa): > 100 µg/mL; % Control at 25 ppm FUS (Fusarium roseum (FUS); 25 ppm): 100%
C[C@@H](NC(=O)OC(C)(C)C)C(=O)OCC#CI [Compound 23, N-t-butoxycarbonyl-D-alanine iodopropargyl ester]	32	–	6.2 (≈ 17.6 µM)	25 (≈ 70.8 µM)	1.6 (≈ 4.53 µM)	–	63	100	0	100	< 4	< 4	100	100	100	inhibition of growth at 25 ppm (Botrytis cinerea (BOC)): 100%; inhibition of growth at 25 ppm [7]: 100%
C[C@@H](NC(=O)OC(C)(C)C)C(=O)N[C@H](C)C(=O)OCC#CI [Compound 25, N-t-butoxycarbonyl-D-alanyl-D-alanine iodopropargyl ester]	–	< 4	50 (≈ 118 µM)	> 50	6.2 (≈ 14.6 µM)	63	–	–	–	–	–	–	–	–	–	MIC (Aspergillus niger (ANIG); [9]): < 4 µg/mL

From patent EP0414533A1, “Use of iodopropargyl esters of alpha-amino acid derivatives as antimicrobial agents” (ROHM AND HAAS COMPANY, priority 1989, dated 1991)
